Test results reported in patent publication US12187662B2, “FOXM1 inhibitor compositions and methods of using the same” (The Board of Trustees of the University of Illinois, priority 2018, dated 2025).
Entries after “also recorded” stand apart in the source; their conditions may differ. Like-named read-outs stand apart in the source and are kept apart here.

How the values were obtained:
FOXM1 protein = target: T1, FOXM1 protein (Homo sapiens, UniProt Q08050); test: Competitive binding of inhibitors to FOXM1 by tr-FRET (Fl-NB-72 probe); details: tr-FRET competition with Fl-NB-72; Ki calculated from IC50 (Cheng-Prusoff)
T1 construct: a terbium donor was attached to purified full length FOXM1 through a streptavidin-biotin linker
T1 sequence (Q08050 1-763): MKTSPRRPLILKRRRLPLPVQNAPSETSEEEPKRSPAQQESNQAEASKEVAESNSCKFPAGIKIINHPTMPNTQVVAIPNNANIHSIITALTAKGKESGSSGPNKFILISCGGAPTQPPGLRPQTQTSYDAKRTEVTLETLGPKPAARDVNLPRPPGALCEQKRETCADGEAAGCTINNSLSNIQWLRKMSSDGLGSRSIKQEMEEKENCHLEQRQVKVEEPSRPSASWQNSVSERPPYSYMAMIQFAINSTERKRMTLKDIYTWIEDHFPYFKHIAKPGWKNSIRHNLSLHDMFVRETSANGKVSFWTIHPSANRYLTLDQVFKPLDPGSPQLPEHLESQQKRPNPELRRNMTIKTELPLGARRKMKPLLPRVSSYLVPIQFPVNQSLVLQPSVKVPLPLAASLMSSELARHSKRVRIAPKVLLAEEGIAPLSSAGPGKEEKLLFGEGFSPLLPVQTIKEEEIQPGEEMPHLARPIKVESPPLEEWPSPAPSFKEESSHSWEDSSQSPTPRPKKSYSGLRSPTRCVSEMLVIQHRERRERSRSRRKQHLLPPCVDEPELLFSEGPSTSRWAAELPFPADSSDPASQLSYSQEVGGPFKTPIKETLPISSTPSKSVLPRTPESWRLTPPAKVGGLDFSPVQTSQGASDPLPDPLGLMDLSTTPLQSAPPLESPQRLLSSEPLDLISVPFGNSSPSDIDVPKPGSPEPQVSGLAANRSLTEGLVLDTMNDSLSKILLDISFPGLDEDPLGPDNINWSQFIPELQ
Procedure: Competitive binding assays of FOXM1 inhibitor binding to FOXM1 by tr-FRET were conducted. All tr-FRET experiments used FRET buffer (20 mM Tris, pH 7.5, 50 mM NaCl, 0.01% NP-40 detergent, 10% glycerol) with 0.3 mg/ml ovalbumin and 0.1 mM butylated hydroxy-anisole added fresh daily. Solutions of the protein, fluorescent probe and inhibitor dilutions were prepared at 3× the final concentrations, the final dilution taking place as they were mixed together on the microtiter plate.
Final concentrations were 10^-5M to 10^-9M, with the last point being buffer only, no inhibitor. Fluorescein-NB-72 (Fl-NB-72) was prepared at 1 mM in DMF and stored at −20° C. It was diluted into plain FRET buffer to give 100 nM in the assay.
Incubations were done in duplicate on black Molecular Devices 96-well microtiter plates. […] To this were added 5 μL of the inhibitor dilutions, mixed and incubated, in the dark, at room temperature, for 1 h. […] Diffusion-enhanced FRET was determined by a parallel incubation without biotin-FOXM1 and subtracted as a background signal. Graphs were prepared using Graph Pad/Prism 4.

DT22 cells = test: Cell proliferation assay (WST-1), DT22; type: cell-based, human
Procedure: (§1) All cells were tested for mycoplasma using Real-Time PCR Mycoplasma Detection Kit (Akron Biotech, Boca Raton, FL).
(§2) All assays were performed in triplicate.

FOXM1 and ERα = test: Cellular level of FOXM1 and ERα (Western blot, mRNA); type: cell-based, human; details: Western blot over time
Procedure: In-cell Western and Western blot assays Cells were cultured in 96-well plates at 3000 cells/well, and treated with compounds for the times indicated. Cells were washed twice in PBS, fixed with 4% formaldehyde (Fisher Scientific) solution in PBS, permeabilized in 0.1% Triton X-100 in PBS, blocked with Odyssey Blocking Buffer (LI-COR), and incubated with FOXM1 antibody (GeneTex, 102170) rabbit HC-20 ERa antibody (Santa Cruz, Cat #SC-543) or mouse F10 ERa antibody (Santa Cruz, Cat #SC8002) at 4 C overnight. Both IRDye 800 CW goat anti-rabbit secondary antibody (LI-COR, Cat #926-32211) and Cell Tag 700 (LI-COR, Cat #926-41090) were diluted (1:600) for incubation with cells. Plates were washed and staining signals were quantified and normalized with Cell Tag signals (to control for any differences in cell number per well) using LI-COR Odyssey infrared imaging system. Fold changes in protein levels were calculated relative to the vehicle treated WT samples. Results are the average±SD from at least three independent experiments, each performed with 4 wells per treatment condition. […]
RNA isolation and real-time PCR Total RNA was isolated using TRIzol (Invitrogen) and reverse transcribed using […] reverse transcriptase (New England BioLabs). […] Relative mRNA levels of genes were normalized to the housekeeping gene 36B4, and fold change calculated relative to the vehicle treated samples. […]

MDA-MB-231 cells = test: Cell proliferation assay (WST-1), MDA-MB-231; type: cell-based, human; details: inhibition of cell proliferation; read-out: IC50 MDA-MB-231
Procedure: as §1, §2

MCF7 cells = test: Cell proliferation assay (WST-1), MCF7; type: cell-based, human; details: read-out: IC50 MCF7
Procedure: as §1, §2

breast cancer cell lines = test: Proliferation of breast cancer cell lines (panel, line not specified); type: cell-based, human; details: for IC50: read-out: IC50 for inhibition of proliferation of breast cancer cell lines
Procedure: as §1, §2

[1] = Pharmacokinetic studies in mice after single s.c. or oral dose; details: mice; for Blood levels after oral administration: 40 mg/kg oral
Procedure: For s.c. injection, each compound was dissolved in DMSO and then mixed with corn oil for a total injection volume of 100 μL (10% DSMO+90% corn oil) per mouse. For oral gavage, compounds were administered in a 200 μL formulation of 9/0.5/0.5/90 parts of PEG400/Tween80/Povidone/0.5% Carboxymethylcellulose. […] Compounds were quantified by LC-MS/MS at the University of Illinois Metabolomics Core Facility. The data were fitted to a non-compartment model.

MCF10A cells = test: Cell proliferation, MCF10A (low FOXM1); type: cell-based, human; details: 6 days
Procedure: (§3) Cell lines and cell culture methods MCF7 and other breast cancer cell lines were obtained from the ATCC and were maintained and cultured as described (Bergamaschi et al., Breast Cancer Res., 2014, 16:436; Madak-Erdogan et al., Mol. Syst. Biol., 2013, 9:676; Zhao et al., Cancer Res., 2017, 77:5602-13). DT22 cells were derived from a human triple negative invasive ductal breast carcinoma and were grown in culture as described (Drews-Elger et al., Breast cancer research and treatment, 2014, 144:503-17). All cells were tested for mycoplasma using Real-Time PCR Mycoplasma Detection Kit (Akron Biotech, Boca Raton, FL).
(§4) Cell proliferation assay WST-1 assay (Roche, Basel, Switzerland) was used to quantify cell viability as described (Gong et al., Mol. Cell Endocrinol., 2016, 437:190-200). Absorbance was measured at 450 nm using a VICTOR X5 PerkinElmer 2030 Multilabel Plate Reader. All assays were performed in triplicate.

[2] = tested on: FOXM1 target genes in DT22 cells; test: FOXM1 target gene expression by qRT-PCR, DT22; type: cell-based, human; details: DT22, 24 h, at IC50 concentration
From the text: RNA was extracted from cells and expression of different genes was monitored by qRT-PCR. Assays were run in triplicate. Values are mean±SEM. *, p<0.05; **, p<0.01; ***, p<0.001. RNA isolation and real-time PCR Total RNA was isolated using TRIzol (Invitrogen) and reverse transcribed using […] reverse transcriptase (New England BioLabs). […] Relative mRNA levels of genes were normalized to the housekeeping gene 36B4, and fold change calculated relative to the vehicle treated samples. Results are the average±SD from at least two independent experiments carried out in triplicate. Primer sequences for the genes studied were obtained from the Harvard Primer Bank. Sequences are available on their website.

[3] = tested on: MDA-MB-453 breast cancer cells; test: Cell proliferation, MDA-MB-453; type: cell-based, human; details: inhibition of cell proliferation
Procedure: as §3, §4

MCF7 xenograft tumors = test: MCF7 breast cancer xenografts in ovariectomized NSG mice; type: in vivo, mouse; details: 100 mg/kg s.c. daily
Procedure: For examination of the growth of ER-positive MCF7 xenograft tumors, female NSG mice were ovariectomized, and 2 weeks after ovariectomy, animals were supplemented with 0.36 mg E2-pellets (60-day release, Innovative Research of America) to support ER+ tumor growth. Cell suspensions of wild type MCF7 cells (1×10^6 cells/mouse) were injected subcutaneously (sc) in the right axial mammary gland and when tumors reached 100-150 mm^3 in size, mice were randomized and received compound or control vehicle (corn oil) by s.c. injection or oral gavage (PEG400/PVP/Tween/CMC as Veh) at the frequency indicated and tumor volume (length><width 2/2) was monitored over time.

[4] = tested on: FOXM1 target genes in MCF7 cells; test: FOXM1 target gene expression by qRT-PCR, MCF7; type: cell-based, human; details: MCF7, 24 h, at IC50 concentration
Procedure: RNA was extracted from cells and expression of different genes was monitored by qRT-PCR. Assays were run in triplicate. Values are mean±SEM. *, p<0.05; **, p<0.01; ***, p<0.001. RNA isolation and real-time PCR Total RNA was isolated using TRIzol (Invitrogen) and reverse transcribed using […] reverse transcriptase (New England BioLabs). Real-time PCR was performed using SYBRgreen PCR Master Mix (Roche) as described (Bergamaschi et al., Breast Cancer Res., 2014, 16:436). Relative mRNA levels of genes were normalized to the housekeeping gene 36B4, and fold change calculated relative to the vehicle treated samples. Results are the average±SD from at least two independent experiments carried out in triplicate. Primer sequences for the genes studied were obtained from the Harvard Primer Bank. Sequences are available on their website.

[5] = tested on: DT22 triple negative human breast tumor xenografts; test: DT22 triple negative breast tumor xenografts in NSG mice; type: in vivo, mouse
Procedure: In vivo breast cancer xenograft studies For examination of the growth of triple-negative DT22 breast tumors, intact female NOD/SCID-gamma (NSG) mice were used. DT-22 cells (1×10^6 cells/mouse) were injected s.c. into the right axial mammary gland. Mice received s.c. injection or oral gavage daily or every second or third day, as indicated, with vehicle or FOXM1 inhibitor compound, and tumor growth was monitored over time.

[6] = after IV administration; cited from earlier work
[7] = inhibition of cell proliferation, read-out: IC50 DT-22
[8] = inhibition of cell proliferation
[9] = cell line not specified or several lines

## Nc1c(C(=O)Nc2ccc(F)cc2)sc2nc(-c3cccs3)cc(C(F)(F)F)c12 [FDI-6, reference compound]
FOXM1 protein
  Ki: 0.143 µM
DT22 cells; [7]
  IC50: 4.8 µM
FOXM1 and ERα
  Cellular FOXM1 and ERα proteins: downregulated
MDA-MB-231 cells
  IC50: 4.5 µM
MCF7 cells; [8]
  IC50: 3.1 µM
Breast cancer cell lines; [9]
  IC50: 8 µM
[1]; 20 mg/kg s.c.
  Blood levels after s.c. administration: very low blood levels
[1]; 40 mg/kg
  Blood levels after oral administration: undetectable
[1]; listed as FDI 6, 40 mg/kg
  Blood levels after oral administration: not detectable

## Clc1ccc(C(=C2C3CC4CC(C3)CC2C4)c2ccc(OCCCCCCN3CCCC3)cc2)cc1 [NB-55, 1-(6-(4-((-((Z)-((5S,7S)-Adamantan-2-ylidene)(4-chlorophenyl)methyl)phenoxy)hexyl)pyrrolidine]
MCF10A cells
  Concentration for 50% suppression of proliferation in MCF10A versus cells with high and intermediate FOXM1: five times higher
[2]
  Expression of ATF3 (gene suppressed by FOXM1): increased
  Expression of FOXM1 stimulated target genes (FOXM1C, AURKB, CCNB1, PLK1): significantly reduced
[3]
  IC50: 3 to 5 µM
FOXM1 protein
  Ki: 0.23 µM
DT22 cells; [7]
  IC50: 6 µM
MCF7 xenograft tumors
  Growth of MCF7 E2-treated xenograft tumors: reduces; also recorded: reduced the growth
[4]
  Expression of ATF3 (gene suppressed by FOXM1): increased
  Expression of FOXM1 stimulated target genes (FOXM1C, AURKB, CCNB1, PLK1): significantly reduced
MCF7 cells; [8]
  IC50: 3 µM
Breast cancer cell lines; [9]
  IC50: 2 to 10 µM
Breast cancer cell lines; cells in culture
  Reduced potency in suppression of cell proliferation (versus salts): 5 fold
[1]; 40 mg/kg p.o.
  PK p.o. AUC0-48: 35.7 µM·h
  PK p.o. t1/2: 16.6 h
[1]; 40 mg/kg s.c.
  PK s.c. AUC0-48: 34.7 µM·h
  PK s.c. t1/2: 26.7 h
[5]; 20 or 40 mg/kg (data not shown)
  Tumor suppression at lower doses: only marginally effective
[5]; daily s.c. or oral, 100 mg/kg
  Growth of DT22 tumor xenografts: effective tumor suppression; also recorded: very effectively suppressed

## CCN(CC)c1ccc(C(c2ccc(N(CC)CC)cc2)=c2ccc3c(c2)CCc2ccccc2[N+]=3CCCN(C)C)cc1 [Imipramine Blue]
[6]
  half-life t1/2: 0.183 h

## C=C(NC(=O)C(=C)NC(=O)c1csc(C2=N[C@@H]3c4csc(n4)[C@H]4NC(=O)c5csc(n5)[C@H]([C@](C)(O)[C@@H](C)O)NC(=O)[C@H]5CSC(=N5)/C(=C/C)NC(=O)[C@H]([C@@H](C)O)NC(=O)c5csc(n5)[C@]3(CC2)NC(=O)[C@H](C)NC(=O)C(=C)NC(=O)[C@H](C)NC(=O)[C@H]([C@@H](C)CC)N[C@@H]2C=Cc3c([C@H](C)O)cc(nc3[C@H]2O)C(=O)O[C@@H]4C)n1)C(N)=O [thiostrepton, reference compound]
DT22 cells; Homo sapiens, DT-22, inhibition of cell proliferation
  IC50: 3.6 µM
FOXM1 and ERα
  Cellular FOXM1 and ERα proteins: downregulated
MCF7 cells; Homo sapiens, MCF7, inhibition of cell proliferation
  IC50: 1.4 µM
Breast cancer cell lines; Homo sapiens
  IC50: 2 µM
